Values joined by “and” are separate entries in the source; they are usually repeats but may differ in a detail not shown here. Equal entries are not always repeated.
Columns and labels:
[1] = tested on: streptozotocin-diabetic Brown-Norway rats; test: Retinal vascular leakage (Evans Blue dye) after eye drops in streptozotocin-diabetic Brown-Norway rats; format: in vivo, rat
Excerpt: Administration of streptozotocin to rodents produces a massive destruction of pancreatic β-cells, and thus, triggers marked elevation of glycemia and development of a diabetic state which, in part, mimics early stages of type 1 diabetes. In this regard, streptozotocin-treated rats develop an inflammatory retinopathy featured by rupture of the blood-retinal barrier, increase of inflammatory mediators, cytokines and growth factors (VEGF, basic fibroblast growth factor), microglial cell activation and leukostasis.
Male Brown-Norway or Wistar rats were made diabetic by […] of 65 mg/kg intraperitoneal streptozotocin. Rats with a glycemia<350 mg/dl were discarded from the study. […] On day 15, retinal vascular leakage was determined by measurement of retinal content of Evans Blue dye.
Recombinant tissue kallikrein binding protein (rKBP) was used as a reference drug and was given intravitreally 48 hours before vascular leakage measurement. Values are means ±standard error mean of 12 eyes/group (6 rats). *** means that P<0.001 in a Student's t-test.
The route by which the phosphate salt of compound n° 49 reaches the retina following topical instillation was investigated to determine whether it is mainly by systemic circulation or by the trans- and/or peri-ocular pathway.

[2] = tested on: mRNA of cytokines, vasoactive mediators and growth factors in retina; test: Expression of mRNA of cytokines, vasoactive mediators and growth factors in retina of diabetic Wistar rats; format: in vivo, rat; conditions: 1% eye drops for 7 days, phosphate salt
Excerpt: Expression of mRNA of B1R, B2R, i-NOS, e-NOS, COX-2, ICAM-1, VEGF-R2, VEGF-a, IL-1β and HIF-1α was increased in diabetic rat retina compared to control by 7.5-fold (P<0.05), 5.5, 15- (P<0.01), 6.5- , 8- (P<0.05), 8- , 5- (P<0.05), 12-, 6.5- (P<0.01) and 7-fold (P<0.05), respectively. Expression of TNF-α mRNA remained unchanged.

[3] = tested on: leukocyte adhesion to the retinal vasculature; test: Leukocyte adhesion to the retinal vasculature of streptozotocin-diabetic Wistar rats; format: in vivo, rat; conditions: phosphate salt, 1% eye drop twice-a-day for 7 days; P<0.05
[4] = Ocular distribution study in albino and pigmented rabbits (14C-compound, single ocular administration); format: in vivo, rabbit
Excerpt: Further, an ocular distribution study in albino and pigmented rabbits has been performed.

[5] = tested on: mRNA of cytokines, vasoactive mediators and growth factors in retina; test: Expression of mRNA of cytokines, vasoactive mediators and growth factors in retina of diabetic Wistar rats; format: in vivo, rat; conditions: 1% eye drops for 7 days, phosphate salt; remark: listed apart in the source
[6] = tested on: STZ diabetic Brown-Norway rats; conditions: intravitreal route, positive reference drug; cited from earlier work
[7] = single ocular 30 μl of 2% (base equivalent) 14C formulation

Molecule: COc1cc(C)c(S(=O)(=O)N(C)CCOCC(=O)N(C)Cc2ccc(C3=NCCN3)cc2)c(C)c1 [compound n° 49]
- reduction of retinal edema, maximum ([1]; 1% eye drops, two separate preliminary studies (data not shown)): 58% and 63%
- reduction of retinal vascular permeability, treated eye ([1]; 3% phosphate salt in a single eye for 7 days): 37%
- reduction of retinal oedema, maximum ([1]; phosphate salt, eye drop (10 μl) 0.1-3% twice daily for 7 days, dose-dependent): 55%
- activity of phosphate salt form compared to fumarate salt ([1]; test not specified): equivalent activity
- mRNA expression of B1R in retina [2]: down-regulated to control level
- mRNA expression of B2R in retina [2]: down-regulated to control level
- mRNA expression of COX-2 in retina [2]: down-regulated to control level
- mRNA expression of HIF-1α in retina [2]: down-regulated to control level
- mRNA expression of ICAM-1 in retina [2]: down-regulated to control level
- mRNA expression of VEGF-A in retina (first mention in list) [2]: down-regulated to control level
- mRNA expression of e-NOS in retina [2]: down-regulated to control level
- mRNA expression of i-NOS in retina [2]: down-regulated to control level
- reduction of expression of VEGF-A mRNA in retina [2]: 50%
- leukostasis (number of leukocytes in retinal vessels) [3]: significantly blunted
- Cmax in plasma ([4]; albino and pigmented rabbits (similar profiles), single ocular 30 μl of 2%): 88 ng/mL
- AUC 0-48 in aqueous, retina, choroids, whole blood and plasma, pigmented rabbit higher than albino [4, 7]: at least 2 fold
- Cmax, pigmented rabbit lower than albino [4, 7]: at least 2 fold
- t½ in vitreous, retina and choroids, pigmented rabbit higher than albino [4, 7]: at least 2 fold
- mRNA expression of IL-1α in retina [5]: down-regulated to control level

B1: rKBP: Recombinant tissue kallikrein binding protein, reference drug given intravitreally (protein, UniProt P29622 21-427, looked up)
Kallistatin: QLHVEHDGESCSNSSHQQILETGEGSPSLKIAPANADFAFRFYYLIASETPGKNIFFSPLSISAAYAMLSLGACSHSRSQILEGLGFNLTELSESDVHRGFQHLLHTLNLPGHGLETRVGSALFLSHNLKFLAKFLNDTMAVYEAKLFHTNFYDTVGTIQLINDHVKKETRGKIVDLVSELKKDVLMVLVNYIYFKALWEKPFISSRTTPKDFYVDENTTVRVPMMLQDQEHHWYLHDRYLPCSVLRMDYKGDATVFFILPNQGKMREIEEVLTPEMLMRWNNLLRKRNFYKKLELHLPKFSISGSYVLDQILPRLGFTDLFSKWADLSGITKQQKLEASKSFHKATLDVDEAGTEAAAATSFAIKFFSAQTNRHILRFNRPFLVVIFSTSTQSVLFLGKVVDPTKP
- reduction of retinal vascular leakage [6]: approximately 50%
